Experimental findings from US8569313B2, “Meta-substituted phenyl sulfonyl amides of secondary amino acid amides, the production thereof, and use thereof as matriptase inhibitors” (The Medicines Company (Leipzig) GmbH, priority 2007, dated 2013) are described below.

The target of this assay is matriptase (Homo sapiens (Human), UniProt Q9Y5Y6). Nature of the assay: Determination of the matriptase inhibition (chromogenic substrate CH3SO2-D-Cha-Gly-Arg-pNA, Dixon Ki). In kind it is biochemical. The note with it: 25° C., pH 8.0; means of at least two determinations. How it is done:
Determination of the Matriptase Inhibition
To determine the inhibition effect, 200 μl Tris buffer (inhibitor contains 0.05 M, 0.154 M NaCl, 5% ethanol, pH 8.0), 25 μl substrate (CH3SO2-D-Cha-Gly-Arg-pNA; 2 and 1 mM) and 50 μl matriptase (0.5 μg/ml) were incubated at 25° C. After 3 min the reaction was halted through the addition of 25 μl acetic acid (50%) and the Absorption determined at 405 nm by means of a Microplate Reader (Multiscan Ascent from the company Thermo Electron Corporation). The Ki values were calculated according to Dixon (Biochem. J. 55, 170-171, 1953) through linear regression by means of a computer program. The Ki-values are the means of at least two determinations.
Ki value for the inhibition of matriptase in nM (n.d.=not determined)

Sequence of matriptase (Q9Y5Y6 whole entry): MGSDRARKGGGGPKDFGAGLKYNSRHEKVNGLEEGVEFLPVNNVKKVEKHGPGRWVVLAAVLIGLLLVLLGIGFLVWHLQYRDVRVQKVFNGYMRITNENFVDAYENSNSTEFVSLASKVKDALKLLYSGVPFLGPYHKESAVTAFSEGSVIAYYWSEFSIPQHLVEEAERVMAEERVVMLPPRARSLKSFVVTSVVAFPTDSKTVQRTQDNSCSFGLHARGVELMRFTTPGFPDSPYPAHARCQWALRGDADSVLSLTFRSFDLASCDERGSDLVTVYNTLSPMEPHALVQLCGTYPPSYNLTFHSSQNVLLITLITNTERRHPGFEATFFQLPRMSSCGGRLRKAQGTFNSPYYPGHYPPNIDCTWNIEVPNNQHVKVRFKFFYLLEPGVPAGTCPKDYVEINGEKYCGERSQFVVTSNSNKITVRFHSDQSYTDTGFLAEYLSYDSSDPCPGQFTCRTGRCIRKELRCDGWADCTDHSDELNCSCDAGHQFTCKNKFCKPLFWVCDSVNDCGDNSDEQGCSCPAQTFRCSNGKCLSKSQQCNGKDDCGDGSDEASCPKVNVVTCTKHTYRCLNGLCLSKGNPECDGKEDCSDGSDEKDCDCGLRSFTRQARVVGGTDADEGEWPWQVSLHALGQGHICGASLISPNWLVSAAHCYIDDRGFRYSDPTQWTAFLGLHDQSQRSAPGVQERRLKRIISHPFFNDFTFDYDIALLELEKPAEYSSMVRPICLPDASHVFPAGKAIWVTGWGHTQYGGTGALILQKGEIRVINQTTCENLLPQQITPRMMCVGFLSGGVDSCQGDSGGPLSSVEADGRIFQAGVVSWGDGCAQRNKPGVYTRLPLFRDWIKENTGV

For `N=C(N)c1cccc(CC(NS(=O)(=O)c2cccc(-c3ccc(N)nc3)c2)C(=O)N2CCC(CCN)CC2)c1` (stereo not drawn) [Inhibitor 14], the affinity corresponds to a Ki of 4.2 nM.
The same measure for `CNC(=O)CCCC1CCN(C(=O)[C@H](Cc2cccc(C(=N)N)c2)NS(=O)(=O)c2cccc(C3CCC(N)=NC3)c2)CC1` (stereo partly drawn) [Inhibitor 47]: 0.49 nM; for `N=C(N)c1cccc(C[C@H](NS(=O)(=O)c2cccc(NC(=O)C3CNC3)c2)C(=O)N2CCC(CCN)CC2)c1` [Inhibitor 40]: 1.7 nM.
Turning to `N=C(N)c1cccc(C[C@H](NS(=O)(=O)c2cccc(NC(=O)CCN)c2)C(=O)N2CCCCC2)c1` [Inhibitor 28], the affinity, expressed as Ki, was 32 nM.
For the compound `N=C(N)c1cccc(C[C@H](NS(=O)(=O)c2cccc(NC(=O)CCN)c2)C(=O)N2CCCC(C(N)=O)C2)c1` (stereo partly drawn) [Inhibitor 24], the Ki (in general, the dissociation constant of the complex between target and ligand, obtained from inhibition or displacement) is 30.5 nM.
Turning to `CNC(=O)CCCC1CCN(C(=O)[C@H](Cc2cccc(C(=N)N)c2)NS(=O)(=O)c2cccc(NC(=O)CCN)c2)CC1` [Inhibitor 17, N-(3-β-Ala)amidophenyl sulfonyl-Phe(3-Am)-piperidine buteryl-N-methylamide], the Ki was determined as 6.3 nM.
In the case of `N=C(N)c1cccc(C[C@H](NS(=O)(=O)c2cccc(NC(=O)CCN)c2)C(=O)N2CCC(CCCC(=O)O)CC2)c1` [Inhibitor 22], affinity was put at a Ki of 255 nM.
Take `COc1ccc(-c2cccc(S(=O)(=O)NC(Cc3cccc(C(=N)N)c3)C(=O)N3CCC(CCN)CC3)c2)cc1OC` (stereo not drawn) [Inhibitor 1, 3-(3,4-dimethoxyphenyl)phenyl sulfonyl-d/l-Phe(3-Am)-4-(2-aminoethyl)piperidide]: the Ki was determined as 5.4 nM.
`N=C(N)c1cccc(C[C@H](NS(=O)(=O)c2cccc(NC(=O)CCN)c2)C(=O)N2CCNCC2)c1` [Inhibitor 27] had a Ki of 36 nM.
In turn, `CCc1ccc(-c2cccc(S(=O)(=O)N[C@@H](Cc3cccc(C(=N)N)c3)C(=O)N3CCC(CCCC(=O)NC)CC3)c2)cc1` [Inhibitor 19] returned a Ki of 24.5 nM.
As to `N=C(N)c1cccc(CC(NS(=O)(=O)c2cccc(-c3ccc(Cl)cc3)c2)C(=O)N2CCC(CCN)CC2)c1` (stereo not drawn) [Inhibitor 7], the Ki is 26 nM.
To `CNC(=O)CCCC1CCN(C(=O)[C@H](Cc2cccc(C(=N)N)c2)NS(=O)(=O)c2cccc(NC(=O)C3CNC3)c2)CC1` [Inhibitor 38] belongs 16 nM.
The compound `CNC(=O)CCCC1CCN(C(=O)[C@H](Cc2cccc(C(=N)N)c2)NS(=O)(=O)c2cccc(N3CCCCC3=O)c2)CC1` [Inhibitor 30] returned a Ki of 31 nM.
To `N=C(N)c1cccc(CC(NS(=O)(=O)c2cccc(C3CCC(N)=NC3)c2)C(=O)N2CCC(CCN)CC2)c1` (stereo not drawn) [Inhibitor 15] belongs 0.069 nM; to “H-βAla-3-NH-phenyl sulfonyl-Phe(3-Am)-4-piperidyl-(CH2)3—CONH—(CH2)2-PEG10000-CH3 [Inhibitor 50]”, 54 nM; to `N=C(N)c1cccc(C[C@H](NS(=O)(=O)c2cccc(NC(=O)CCN)c2)C(=O)N2CCN(C(=O)OCc3ccccc3)CC2)c1` [Inhibitor 26], 6.1 nM.
On to `NCCC(=O)Nc1cccc(S(=O)(=O)N[C@@H](Cc2cccc(CN)c2)C(=O)N2CCC(CCN)CC2)c1` [Inhibitor 34, H-βAla-3-NH-phenyl sulfonyl-Phe(3-Ame)-(2-aminoethyl)piperidide], for which the Ki was found to be 56 nM.
The compound `N=C(N)c1cccc(CC(NS(=O)(=O)c2cccc(-c3ccc4[nH]ccc4c3)c2)C(=O)N2CCC(CCN)CC2)c1` (stereo not drawn) [Inhibitor 13] came in with a Ki of 13 nM.
As for `N=C(N)c1cccc(CC(NS(=O)(=O)c2cccc(-c3ccccc3)c2)C(=O)N2CCC(CCN)CC2)c1` (stereo not drawn) [Inhibitor 2], the Ki is 100 nM.
Compound `N=C(N)c1cccc(CC(NS(=O)(=O)c2cccc(-c3cccnc3)c2)C(=O)N2CCC(CCN)CC2)c1` (stereo not drawn) [Inhibitor 11] showed a Ki of 47 nM.
As to `NCCC(=O)Nc1cccc(S(=O)(=O)N[C@@H](Cc2cccc(CN)c2)C(=O)N2CCN(C(=O)OCc3ccccc3)CC2)c1` [Inhibitor 36], affinity was put at a Ki of 44.5 nM.
The same measure for `CNC(=O)CCCC1CCN(C(=O)[C@H](Cc2cccc(C(=N)N)c2)NS(=O)(=O)c2cccc(-c3ccc(N)nc3)c2)CC1` [Inhibitor 46]: 11 nM; for `Cc1nccc(-c2cccc(S(=O)(=O)N[C@@H](Cc3cccc(C(=N)N)c3)C(=O)N3CCC(CCN)CC3)c2)n1` [Inhibitor 12]: 28 nM; for `N=C(N)c1cccc(C[C@H](NS(=O)(=O)c2cccc(NC(=O)CCO)c2)C(=O)N2CCC(CCN)CC2)c1` [Inhibitor 37]: 117 nM.
To `CNC(=O)CCCC1CCN(C(=O)[C@H](Cc2cccc(C(=N)N)c2)NS(=O)(=O)c2cccc(-c3ccc(C(C)C)cc3)c2)CC1` [Inhibitor 44] belongs 23.5 nM; to `COC(=O)CCCC1CCN(C(=O)[C@H](Cc2cccc(C(=N)N)c2)NS(=O)(=O)c2cccc(NC(=O)CCN)c2)CC1` [Inhibitor 20], 6.1 nM.
Compound `COc1ccc(-c2cccc(S(=O)(=O)NC(Cc3cccc(CN)c3)C(=O)N3CCC(CCN)CC3)c2)cc1` (stereo not drawn) [Inhibitor 35] gave a Ki of 145 nM.
To `CCc1ccc(-c2cccc(S(=O)(=O)NC(Cc3cccc(C(=N)N)c3)C(=O)N3CCC(CCN)CC3)c2)cc1` (stereo not drawn) [Inhibitor 5] belongs 2.5 nM; to `CNC(=O)CCCC1CCN(C(=O)[C@H](Cc2cccc(C(=N)N)c2)NS(=O)(=O)c2cccc(-c3ccc(C(C)(C)C)cc3)c2)CC1` [Inhibitor 41], 87 nM.
For `CCc1ccc(-c2cccc(S(=O)(=O)N[C@@H](Cc3cccc(/C(N)=N\O)c3)C(=O)N3CCC(CCCC(=O)NC)CC3)c2)cc1` [Inhibitor 33], the affinity, expressed as Ki, was 24000 nM.
To `N=C(N)c1cccc(CC(NS(=O)(=O)c2cccc(-c3ccncc3)c2)C(=O)N2CCC(CCN)CC2)c1` (stereo not drawn) [Inhibitor 10] belongs 60 nM; to `CCOc1ccc(-c2cccc(S(=O)(=O)NC(Cc3cccc(C(=N)N)c3)C(=O)N3CCC(CCN)CC3)c2)cc1` (stereo not drawn) [Inhibitor 4], 5.4 nM; to `N=C(N)c1cccc(C[C@H](NS(=O)(=O)c2cccc(NC(=O)CCN)c2)C(=O)N2CCC(C(=O)OCc3ccccc3)CC2)c1` [Inhibitor 48], 0.7 nM.
As to `N=C(N)c1cccc(CC(NS(=O)(=O)c2cccc(-c3ccccc3Cl)c2)C(=O)N2CCC(CCN)CC2)c1` (stereo not drawn) [Inhibitor 9], affinity was put at a Ki of 29 nM.
Regarding `CC(C)Oc1ccc(-c2cccc(S(=O)(=O)NC(Cc3cccc(C(=N)N)c3)C(=O)N3CCC(CCN)CC3)c2)cc1` (stereo not drawn) [Inhibitor 6], the Ki amounted to 12 nM.
To `CNC(=O)CCCC1CCN(C(=O)C(Cc2cccc(C(=N)N)c2)NS(=O)(=O)c2cccc(-n3ncccc3=O)c2)CC1` (stereo not drawn) [Inhibitor 29] belongs 98 nM; to `N=C(N)c1cccc(C[C@H](NS(=O)(=O)c2cccc(CCCCN)c2)C(=O)N2CCC(CCN)CC2)c1` [Inhibitor 16, 3-(1-aminobutyl)-phenyl sulfonyl-Phe(3-Amidino)-4-(2-aminoethyl)piperidide], 0.74 nM; to `COc1ccc(-c2cccc(S(=O)(=O)NC(Cc3cccc(C(=N)N)c3)C(=O)N3CCC(CCN)CC3)c2)cc1` (stereo not drawn) [Inhibitor 3], 6 nM.
For the compound `N=C(N)c1cccc(CC(NS(=O)(=O)c2cccc(-c3cccc(Cl)c3)c2)C(=O)N2CCC(CCN)CC2)c1` (stereo not drawn) [Inhibitor 8], the affinity corresponds to a Ki of 91 nM.
On to `N=C(N)c1cccc(C[C@H](NS(=O)(=O)c2cccc(NC(=O)CCN)c2)C(=O)N2CCC(CCCC(N)=O)CC2)c1` [Inhibitor 21], for which the affinity, expressed as Ki, was 11.8 nM.
The same measure for `N=C(N)c1cccc(C[C@H](NS(=O)(=O)c2cccc(NC(=O)CCN)c2)C(=O)N2CCC(C(N)=O)CC2)c1` [Inhibitor 23]: 12.1 nM.
Compound `CCOc1ccc(-c2cccc(S(=O)(=O)N[C@@H](Cc3cccc(C(=N)N)c3)C(=O)N3CCC(CCCC(=O)NC)CC3)c2)cc1` [Inhibitor 18] displayed a Ki of 8.1 nM.
